This note sets out measurements from patent US12227500B2, “Substituted pyrrolo[2,3-b]pyridines for suppressing toxic endoplasmic reticulum stress” (THE TRUSTEES OF COLUMBIA UNIVERSITY IN THE CITY OF NEW YORK, priority 2018, dated 2025).

Molecules are shown by their SMILES.

Holding throughout (assay): Radiolabeled ATP kinase assay, panel of 371 kinases (Table S6)
Type in all cases: biochemical

Assay [1] concerns the target T1, panel of 371 human kinases (Homo sapiens, UniProt O15075).
T1 construct: purchased Reaction Biology Corp
As to conditions: DCAMKL1; 0.1 μM; 10 μM ATP; read-out: % Enzyme Activity (relative to DMSO controls). From the text:
(§1) ; FIG. 38C). […]. Further targeted analyses, such as genetic knock-down or knock-out, may be warranted to parse the role of these additional kinases in our model of neurodegeneration.

The target of assay [2] is T2, panel of 371 human kinases (Homo sapiens, UniProt O43293).
T2 construct: purchased Reaction Biology Corp
As to conditions: ZIPK/DAPK3; 0.1 μM; 10 μM ATP; read-out: % Enzyme Activity (relative to DMSO controls).
Text: as §1

Assay [3] deals with T3, panel of 371 human kinases (Homo sapiens, UniProt O75116).
T3 construct: purchased Reaction Biology Corp
T3 sequence (O75116 whole entry): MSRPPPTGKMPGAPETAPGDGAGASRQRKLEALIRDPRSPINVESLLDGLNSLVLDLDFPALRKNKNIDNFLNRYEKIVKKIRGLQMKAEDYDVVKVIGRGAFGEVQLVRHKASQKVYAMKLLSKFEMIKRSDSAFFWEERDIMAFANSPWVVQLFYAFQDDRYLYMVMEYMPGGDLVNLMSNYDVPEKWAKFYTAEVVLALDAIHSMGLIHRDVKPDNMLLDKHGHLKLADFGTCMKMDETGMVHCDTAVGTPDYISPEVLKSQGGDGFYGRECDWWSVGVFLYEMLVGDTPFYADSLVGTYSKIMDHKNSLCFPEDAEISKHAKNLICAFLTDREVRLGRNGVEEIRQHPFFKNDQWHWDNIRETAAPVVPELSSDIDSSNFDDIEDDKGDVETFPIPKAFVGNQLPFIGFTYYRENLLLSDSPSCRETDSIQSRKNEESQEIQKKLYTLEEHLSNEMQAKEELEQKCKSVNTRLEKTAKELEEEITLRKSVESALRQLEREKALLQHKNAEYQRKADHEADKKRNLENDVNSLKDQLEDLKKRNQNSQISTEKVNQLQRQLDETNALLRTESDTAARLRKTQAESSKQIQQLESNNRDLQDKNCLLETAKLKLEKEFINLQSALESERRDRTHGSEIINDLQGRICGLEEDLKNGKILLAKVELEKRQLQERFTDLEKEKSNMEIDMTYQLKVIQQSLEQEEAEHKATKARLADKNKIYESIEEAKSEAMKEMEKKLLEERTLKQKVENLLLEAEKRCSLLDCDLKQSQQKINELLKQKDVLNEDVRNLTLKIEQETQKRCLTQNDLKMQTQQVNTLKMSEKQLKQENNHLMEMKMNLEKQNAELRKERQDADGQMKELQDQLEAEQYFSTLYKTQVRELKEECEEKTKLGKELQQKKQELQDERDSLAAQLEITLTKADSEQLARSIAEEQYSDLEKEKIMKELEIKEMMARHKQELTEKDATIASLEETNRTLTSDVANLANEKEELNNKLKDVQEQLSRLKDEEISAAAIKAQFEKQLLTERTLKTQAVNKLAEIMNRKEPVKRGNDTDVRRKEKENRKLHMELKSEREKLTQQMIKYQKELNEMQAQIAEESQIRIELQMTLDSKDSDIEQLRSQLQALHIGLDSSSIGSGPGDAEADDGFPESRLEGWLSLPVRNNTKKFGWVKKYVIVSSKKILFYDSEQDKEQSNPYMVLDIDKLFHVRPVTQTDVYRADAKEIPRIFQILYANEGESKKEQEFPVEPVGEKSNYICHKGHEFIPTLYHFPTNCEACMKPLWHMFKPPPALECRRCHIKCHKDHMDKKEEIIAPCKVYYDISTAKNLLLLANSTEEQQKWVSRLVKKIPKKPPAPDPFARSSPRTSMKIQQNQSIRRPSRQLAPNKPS
As to conditions: ROCK2; 0.1 μM; 10 μM ATP; read-out: % Enzyme Activity (relative to DMSO controls).
Text: as §1

Assay [4] has as its target T4, panel of 371 human kinases (Homo sapiens, UniProt O75460).
T4 construct: purchased Reaction Biology Corp
Conditions: ERN1/IRE1; 0.1 μM; 10 μM ATP; read-out: % Enzyme Activity (relative to DMSO controls).
Text: as §1

For assay [5], the target named is T5, panel of 371 human kinases (Homo sapiens, UniProt P04626).
T5 construct: purchased Reaction Biology Corp
T5 sequence (P04626 23-1255): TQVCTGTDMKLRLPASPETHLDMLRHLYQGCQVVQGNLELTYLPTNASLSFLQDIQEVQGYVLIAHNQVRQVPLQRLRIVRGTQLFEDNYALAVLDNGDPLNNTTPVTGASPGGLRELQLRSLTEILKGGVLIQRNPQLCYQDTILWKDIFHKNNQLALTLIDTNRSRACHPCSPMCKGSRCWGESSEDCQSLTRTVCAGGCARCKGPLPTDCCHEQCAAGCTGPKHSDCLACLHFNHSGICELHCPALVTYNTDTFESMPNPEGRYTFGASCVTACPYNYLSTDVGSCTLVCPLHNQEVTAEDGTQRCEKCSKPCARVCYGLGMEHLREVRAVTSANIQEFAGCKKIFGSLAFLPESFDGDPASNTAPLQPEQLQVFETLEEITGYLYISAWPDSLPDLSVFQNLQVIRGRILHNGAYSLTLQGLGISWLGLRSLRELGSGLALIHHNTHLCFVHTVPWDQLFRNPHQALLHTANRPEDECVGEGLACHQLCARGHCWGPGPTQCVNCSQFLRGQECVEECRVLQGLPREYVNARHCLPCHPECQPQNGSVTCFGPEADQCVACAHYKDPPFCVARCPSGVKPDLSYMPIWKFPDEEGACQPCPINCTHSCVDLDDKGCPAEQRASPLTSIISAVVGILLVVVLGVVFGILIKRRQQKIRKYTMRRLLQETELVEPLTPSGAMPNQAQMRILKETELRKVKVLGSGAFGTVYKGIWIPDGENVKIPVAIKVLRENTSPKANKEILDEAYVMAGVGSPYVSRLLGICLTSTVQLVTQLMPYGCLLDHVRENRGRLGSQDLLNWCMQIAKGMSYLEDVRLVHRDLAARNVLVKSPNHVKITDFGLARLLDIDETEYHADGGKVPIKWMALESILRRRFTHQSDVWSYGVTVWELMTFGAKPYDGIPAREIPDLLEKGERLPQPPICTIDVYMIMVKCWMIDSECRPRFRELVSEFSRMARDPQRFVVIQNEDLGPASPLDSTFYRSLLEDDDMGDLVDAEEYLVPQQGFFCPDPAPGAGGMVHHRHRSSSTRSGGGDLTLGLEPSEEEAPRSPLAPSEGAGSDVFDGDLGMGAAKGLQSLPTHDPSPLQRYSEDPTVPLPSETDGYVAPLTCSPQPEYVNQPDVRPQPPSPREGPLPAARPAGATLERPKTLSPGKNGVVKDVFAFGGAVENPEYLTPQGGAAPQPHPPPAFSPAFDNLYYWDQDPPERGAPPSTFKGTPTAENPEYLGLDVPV
As to conditions: ERBB2/HER2; 0.1 μM; 10 μM ATP; read-out: % Enzyme Activity (relative to DMSO controls).
Text: as §1

Assay [6] addresses T6, panel of 371 human kinases (Homo sapiens, UniProt P07333).
T6 construct: purchased Reaction Biology Corp
As to conditions: FMS; 0.1 μM; 10 μM ATP; read-out: % Enzyme Activity (relative to DMSO controls).
Text: as §1

Assay [7] concerns the target T7, panel of 371 human kinases (Homo sapiens, UniProt P20794).
T7 construct: purchased Reaction Biology Corp
As to conditions: MAK; 0.1 μM; 10 μM ATP; read-out: % Enzyme Activity (relative to DMSO controls).
Text: as §1

For assay [8], the target named is T8, panel of 371 human kinases (Homo sapiens, UniProt P29376).
T8 construct: purchased Reaction Biology Corp
T8 sequence (P29376 17-864): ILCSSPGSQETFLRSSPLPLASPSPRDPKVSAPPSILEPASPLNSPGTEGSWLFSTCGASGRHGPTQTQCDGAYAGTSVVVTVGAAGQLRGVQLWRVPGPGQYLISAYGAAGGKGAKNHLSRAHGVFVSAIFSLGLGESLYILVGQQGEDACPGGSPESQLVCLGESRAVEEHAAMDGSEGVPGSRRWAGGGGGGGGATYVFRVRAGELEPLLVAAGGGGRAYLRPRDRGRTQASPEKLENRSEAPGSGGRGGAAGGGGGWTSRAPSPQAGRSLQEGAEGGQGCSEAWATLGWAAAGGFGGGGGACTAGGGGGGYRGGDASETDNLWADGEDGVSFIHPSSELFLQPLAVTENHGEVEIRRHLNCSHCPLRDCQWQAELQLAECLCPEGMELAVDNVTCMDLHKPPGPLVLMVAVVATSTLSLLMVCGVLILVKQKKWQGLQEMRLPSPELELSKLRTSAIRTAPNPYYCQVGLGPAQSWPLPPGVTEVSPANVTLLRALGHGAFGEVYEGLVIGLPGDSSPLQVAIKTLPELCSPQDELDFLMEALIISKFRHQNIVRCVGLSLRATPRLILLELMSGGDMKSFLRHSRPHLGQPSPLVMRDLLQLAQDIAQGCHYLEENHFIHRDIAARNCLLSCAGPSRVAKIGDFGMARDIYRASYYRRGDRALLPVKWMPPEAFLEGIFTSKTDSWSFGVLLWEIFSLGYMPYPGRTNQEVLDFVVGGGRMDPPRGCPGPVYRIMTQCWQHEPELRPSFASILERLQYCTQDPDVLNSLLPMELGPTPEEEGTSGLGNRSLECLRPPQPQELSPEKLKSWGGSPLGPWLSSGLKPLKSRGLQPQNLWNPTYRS
Conditions: TYK1/LTK; 0.1 μM; 10 μM ATP; read-out: % Enzyme Activity (relative to DMSO controls).
Text: as §1

For assay [9], the target named is T9, panel of 371 human kinases (Homo sapiens, UniProt P37173).
T9 construct: purchased Reaction Biology Corp
Conditions: TGFBR2; 0.1 μM; 10 μM ATP; read-out: % Enzyme Activity (relative to DMSO controls).
Text: as §1

The target in assay [10] is T10, panel of 371 human kinases (Homo sapiens, UniProt Q16644).
T10 construct: purchased Reaction Biology Corp
Conditions: MAPKAPK3; 0.1 μM; 10 μM ATP; read-out: % Enzyme Activity (relative to DMSO controls).
Text: as §1

The target of assay [11] is T11, panel of 371 human kinases (Homo sapiens, UniProt Q5TCY1).
T11 construct: purchased Reaction Biology Corp
As to conditions: TTBK1; 0.1 μM; 10 μM ATP; read-out: % Enzyme Activity (relative to DMSO controls).
Text: as §1

Assay [12] addresses T12, panel of 371 human kinases (Homo sapiens, UniProt Q6DT37).
T12 construct: purchased Reaction Biology Corp
As to conditions: DMPK2; 0.1 μM; 10 μM ATP; read-out: % Enzyme Activity (relative to DMSO controls).
Text: as §1

Assay [13] addresses T13, panel of 371 human kinases (Homo sapiens, UniProt Q8IVH8).
T13 construct: purchased Reaction Biology Corp
T13 sequence (Q8IVH8 1-894): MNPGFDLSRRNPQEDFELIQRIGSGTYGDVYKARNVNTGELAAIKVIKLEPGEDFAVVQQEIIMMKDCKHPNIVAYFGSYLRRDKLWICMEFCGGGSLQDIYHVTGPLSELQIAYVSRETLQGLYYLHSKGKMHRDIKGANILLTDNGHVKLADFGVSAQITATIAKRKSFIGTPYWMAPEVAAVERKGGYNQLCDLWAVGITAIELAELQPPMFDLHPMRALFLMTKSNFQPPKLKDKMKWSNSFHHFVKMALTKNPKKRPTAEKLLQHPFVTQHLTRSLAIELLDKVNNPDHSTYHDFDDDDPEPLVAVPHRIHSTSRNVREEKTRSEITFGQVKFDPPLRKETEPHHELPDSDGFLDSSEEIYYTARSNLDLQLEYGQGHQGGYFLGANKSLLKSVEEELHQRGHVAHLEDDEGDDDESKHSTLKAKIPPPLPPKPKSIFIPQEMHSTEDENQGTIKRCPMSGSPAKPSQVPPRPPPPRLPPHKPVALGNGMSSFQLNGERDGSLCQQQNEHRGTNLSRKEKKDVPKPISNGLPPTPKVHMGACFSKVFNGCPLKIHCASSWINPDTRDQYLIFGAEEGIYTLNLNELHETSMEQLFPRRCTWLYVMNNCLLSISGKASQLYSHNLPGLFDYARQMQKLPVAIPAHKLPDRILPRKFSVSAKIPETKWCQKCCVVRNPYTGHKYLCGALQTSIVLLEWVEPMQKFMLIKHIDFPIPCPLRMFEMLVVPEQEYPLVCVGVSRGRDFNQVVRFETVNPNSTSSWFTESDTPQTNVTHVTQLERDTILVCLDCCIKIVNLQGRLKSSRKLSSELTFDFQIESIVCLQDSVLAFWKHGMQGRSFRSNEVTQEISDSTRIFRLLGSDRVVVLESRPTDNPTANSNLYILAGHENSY
As to conditions: for remaining activity at 0.1 µM: GLK/MAP4K3, 10 μM ATP, read-out: % Enzyme Activity (relative to DMSO controls).
Text: as §1

Assay [14] addresses T14, panel of 371 human kinases (Homo sapiens, UniProt Q8IY84).
T14 construct: purchased Reaction Biology Corp
Conditions: NIM1; 0.1 μM; 10 μM ATP; read-out: % Enzyme Activity (relative to DMSO controls).
Text: as §1

In assay [15] the target is T15, panel of 371 human kinases (Homo sapiens, UniProt Q8N568).
T15 construct: purchased Reaction Biology Corp
As to conditions: DCAMKL2; 0.1 μM; 10 μM ATP; read-out: % Enzyme Activity (relative to DMSO controls).
Text: as §1

In assay [16] the target is T16, panel of 371 human kinases (Homo sapiens, UniProt Q96GD4).
T16 construct: purchased Reaction Biology Corp
As to conditions: Aurora B; 0.1 μM; 10 μM ATP; read-out: % Enzyme Activity (relative to DMSO controls).
Text: as §1

Assay [17] concerns the target T17, panel of 371 human kinases (Homo sapiens, UniProt Q96NX5).
T17 construct: purchased Reaction Biology Corp
As to conditions: CAMK1g; 0.1 μM; 10 μM ATP; read-out: % Enzyme Activity (relative to DMSO controls).
Text: as §1

The target of assay [18] is T18, panel of 371 human kinases (Homo sapiens, UniProt Q9Y2H1).
T18 construct: purchased Reaction Biology Corp
As to conditions: STK38/NDR2; 0.1 μM; 10 μM ATP; read-out: % Enzyme Activity (relative to DMSO controls).
Text: as §1

T7 sequence (P20794 whole entry): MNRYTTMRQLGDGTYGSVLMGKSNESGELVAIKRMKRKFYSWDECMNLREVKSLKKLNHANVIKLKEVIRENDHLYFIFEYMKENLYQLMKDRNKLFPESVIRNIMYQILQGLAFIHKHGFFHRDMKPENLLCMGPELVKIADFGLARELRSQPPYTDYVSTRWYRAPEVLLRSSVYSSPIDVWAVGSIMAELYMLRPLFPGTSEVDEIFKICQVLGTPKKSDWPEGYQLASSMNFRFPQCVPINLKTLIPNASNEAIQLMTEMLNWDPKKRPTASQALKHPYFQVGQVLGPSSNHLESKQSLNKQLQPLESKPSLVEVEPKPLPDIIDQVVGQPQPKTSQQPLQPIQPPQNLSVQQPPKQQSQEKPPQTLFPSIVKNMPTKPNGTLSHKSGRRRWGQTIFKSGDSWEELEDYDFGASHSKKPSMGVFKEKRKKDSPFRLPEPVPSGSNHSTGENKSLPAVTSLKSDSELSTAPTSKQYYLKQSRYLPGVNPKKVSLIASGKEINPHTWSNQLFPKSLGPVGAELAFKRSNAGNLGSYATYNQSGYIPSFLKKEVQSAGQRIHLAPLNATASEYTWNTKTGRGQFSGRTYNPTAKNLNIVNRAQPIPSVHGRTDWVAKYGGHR
T4 sequence (O75460 19-977): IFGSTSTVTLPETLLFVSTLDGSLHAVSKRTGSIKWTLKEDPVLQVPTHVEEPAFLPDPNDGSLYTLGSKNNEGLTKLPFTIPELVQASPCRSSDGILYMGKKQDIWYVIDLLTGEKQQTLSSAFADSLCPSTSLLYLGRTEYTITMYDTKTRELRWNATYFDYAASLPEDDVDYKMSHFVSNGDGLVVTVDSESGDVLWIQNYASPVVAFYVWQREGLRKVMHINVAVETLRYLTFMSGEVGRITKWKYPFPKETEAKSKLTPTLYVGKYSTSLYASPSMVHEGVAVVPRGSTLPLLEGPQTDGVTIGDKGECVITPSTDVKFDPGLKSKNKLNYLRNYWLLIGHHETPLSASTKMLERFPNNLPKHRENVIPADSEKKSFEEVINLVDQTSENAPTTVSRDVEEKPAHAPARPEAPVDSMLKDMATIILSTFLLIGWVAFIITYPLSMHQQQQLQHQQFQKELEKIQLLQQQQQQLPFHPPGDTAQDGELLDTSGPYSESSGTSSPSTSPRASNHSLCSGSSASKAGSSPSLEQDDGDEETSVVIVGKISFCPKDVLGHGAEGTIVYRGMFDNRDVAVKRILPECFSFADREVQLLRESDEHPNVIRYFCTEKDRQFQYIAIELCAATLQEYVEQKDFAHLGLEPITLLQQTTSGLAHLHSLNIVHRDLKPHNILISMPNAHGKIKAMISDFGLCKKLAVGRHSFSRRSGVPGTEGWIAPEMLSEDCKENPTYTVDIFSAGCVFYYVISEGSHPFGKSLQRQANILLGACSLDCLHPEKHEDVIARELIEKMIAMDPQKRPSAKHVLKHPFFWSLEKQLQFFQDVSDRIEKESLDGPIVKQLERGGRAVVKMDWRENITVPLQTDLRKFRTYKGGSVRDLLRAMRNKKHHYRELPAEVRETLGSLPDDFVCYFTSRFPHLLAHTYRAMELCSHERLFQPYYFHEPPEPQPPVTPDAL

Turning to `CN1CCN(Cc2ccc(-c3cnc4[nH]cc(-c5ccc6[nH]ccc6c5)c4c3)cc2)CC1` [Compound 1, 3-(1H-Indol-5-yl)-5-(4-((4-methylpiperazin-1-yl)methyl)phenyl)-1H-pyrrolo[2,3-b]pyridine, reference compound], the remaining activity at 0.1 µM in [1] turned out to be 97.2%; in assay [2] it was 108%; in [3], 71.1%; in assay [4], 107%; in assay [5], 95.3%; in assay [6] it was 85.4%. The remaining activity at 0.1 µM came out at 101% in assay [7]; 105% in assay [8]; 106% in assay [9]; 101% in assay [10]; 111% in assay [11]; 76.8% in assay [12]. In addition, the remaining activity at 0.1 µM was determined as 49.2% in assay [13]; 106% in assay [14]; 87.1% in assay [15]; 103% in assay [16]; 97.8% in assay [17]; 87.7% in assay [18].
As for `OCCN1CCN(Cc2ccc(-c3cnc4[nH]cc(-c5cccc(Cl)c5)c4c3)cc2)CC1` [Compound 12k, 2-(4-(4-(3-(3-Chlorophenyl)-1H-pyrrolo[2,3-b]pyridin-5-yl)benzyl)piperazin-1-yl)ethan-1-ol], the remaining activity at 0.1 µM amounted to 94.2% in [1]; 99.8% in assay [2]; 55.6% in assay [3]; 98.9% in assay [4]; 96% in assay [5]; 26.8% in assay [6]. The remaining activity at 0.1 µM worked out at 87.5% in assay [7]; 117% in [8]; 88% in [9]; 96.7% in assay [10]; 106% in assay [11]; 61.3% in assay [12]. For the same compound, the remaining activity at 0.1 µM turned out to be 7.18% in [13]; 105% in assay [14]; 87.6% in assay [15]; 82.6% in [16]; 101% in assay [17]; 77.8% in assay [18]. The “fold change in GLK activity following 12k exposure relative to 1” value in assay [13] (0.025 μM) amounted to 6.84 fold.
